In US12122778B2, “Activating pyruvate kinase R” (Novo Nordisk Health Care AG, priority 2018, dated 2024):

Assays:
PKR(G332S) = PKR(G332S) (Homo sapiens, UniProt P30613, G332S); assay: Luminescence Biochemical Assay (Kinase Glo Plus), PKR G332S mutant; conditions: with FBP; for activation at 1.54 µM: 1.54 μM compound, read-out: AC50 LUM KGP FBP % Fold@1.54 μM mean; for AC50: read-out: AC50 LUM KGP FBP AC50 μM gmean (column A); for Emax: read-out: AC50 LUM KGP FBP MAX % FOLD mean
PKR(R510Q) = PKR(R510Q) (Homo sapiens, UniProt P30613, R510Q); assay: Luminescence Biochemical Assay (Kinase Glo Plus), PKR R510Q mutant; conditions: without FBP; for activation at 1.54 µM: 1.54 μM compound, read-out: AC50 LUM KGP woFBP % Fold@1.54 μM mean; for AC50: read-out: AC50 LUM KGP woFBP AC50 μM gmean; for Emax: read-out: AC50 LUM KGP woFBP MAX % FOLD mean
Sequence of PKR(R510Q) (P30613 whole entry R510Q): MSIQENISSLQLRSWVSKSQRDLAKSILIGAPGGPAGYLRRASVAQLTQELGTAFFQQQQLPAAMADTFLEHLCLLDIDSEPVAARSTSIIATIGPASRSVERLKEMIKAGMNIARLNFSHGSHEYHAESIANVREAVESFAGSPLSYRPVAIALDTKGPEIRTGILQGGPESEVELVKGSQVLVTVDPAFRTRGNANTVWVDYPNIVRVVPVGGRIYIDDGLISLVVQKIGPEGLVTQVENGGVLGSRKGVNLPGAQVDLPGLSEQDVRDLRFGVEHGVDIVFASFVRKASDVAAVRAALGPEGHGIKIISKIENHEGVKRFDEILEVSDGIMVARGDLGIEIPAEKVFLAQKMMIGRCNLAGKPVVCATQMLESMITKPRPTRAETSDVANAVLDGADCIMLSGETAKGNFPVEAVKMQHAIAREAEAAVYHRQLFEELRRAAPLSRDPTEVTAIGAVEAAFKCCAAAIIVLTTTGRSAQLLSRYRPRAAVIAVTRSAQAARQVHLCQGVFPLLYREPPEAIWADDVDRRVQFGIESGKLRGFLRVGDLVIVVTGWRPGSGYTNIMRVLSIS

PKR(wt) = PKR(wt) (Homo sapiens, UniProt P30613); assay: Luminescence Biochemical Assay (Kinase Glo Plus), wild type PKR; conditions: without FBP; for activation at 1.54 µM: 1.54 μM compound, read-out: AC50 LUM KGP woFBP % Fold@1.54 μM mean; for AC50: read-out: AC50 LUM KGP woFBP AC50 μM gmean; for Emax: read-out: AC50 LUM KGP woFBP MAX % FOLD mean
Sequence of PKR(wt) (P30613 whole entry): as the sequence (P30613 whole entry R510Q) above, with Q510R counted along it

Sequence of PKR(G332S) (P30613 whole entry G332S): as the sequence (P30613 whole entry R510Q) above, with G332S, Q510R counted along it

Row | Structure (SMILES) | activation at 1.54 µM (PKR(G332S)) [%] | AC50 (PKR(G332S)) [µM] | Emax (PKR(G332S)) [%] | activation at 1.54 µM (PKR(R510Q)) [%] | AC50 (PKR(R510Q)) [µM] | Emax (PKR(R510Q)) [%] | activation at 1.54 µM (PKR(wt)) [%] | AC50 (PKR(wt)) [µM] | Emax (PKR(wt)) [%]
1 | CC[C@@H](O)C(=O)N1CC2=C(C1)CN(S(=O)(=O)c1ccc3c(c1)N(C)CCO3)C2 [Example 18-76, (2R)-2-hydroxy-1-{5-[(4-methyl-3,4-dihydro-2H-1,4-benzoxazin-6-yl)sulfonyl]-1H,2H,3H,4H,5H,6H-pyrrolo[3,4-c]pyrrol-2-yl}butan-1-one] | 75 to 250 | 1 to 40 | 75 to 250 | 75 to 250 | 1 to 40 | 75 to 250 | 75 to 250 | 0.1 to 1 | 75 to 250
2 | COc1ccc(CNC(=O)N2CC3=C(C2)CN(S(=O)(=O)c2ccc(OC(F)F)cc2)C3)cc1 [Example 21-10, 5-[4-(Difluoromethoxy)benzenesulfonyl]-N-[(4-methoxyphenyl)methyl]-1H,2H,3H,4H,5H,6H-pyrrolo[3,4-c]pyrrole-2-carboxamide] | 75 to 250 | ≤ 0.1 | 75 to 250 | 250 to 50000 | ≤ 0.1 | 250 to 500 | 250 to 50000 | ≤ 0.1 | 250 to 500
3 | COc1cccc(CNC(=O)N2CC3=C(C2)CN(S(=O)(=O)c2ccc(OC(F)F)cc2)C3)c1 [Example 21-11, 5-[4-(Difluoromethoxy)benzenesulfonyl]-N-[(3-methoxyphenyl)methyl]-1H,2H,3H,4H,5H,6H-pyrrolo[3,4-c]pyrrole-2-carboxamide] | 75 to 250 | ≤ 0.1 | 75 to 250 | 250 to 50000 | ≤ 0.1 | 250 to 500 | 250 to 50000 | ≤ 0.1 | 250 to 500
4 | O=C(NCc1ccc(F)cc1)N1CC2=C(C1)CN(S(=O)(=O)c1ccc(OC(F)F)cc1)C2 [Example 21-13, 5-[4-(Difluoromethoxy)benzenesulfonyl]-N-[(4-fluorophenyl)methyl]-1H,2H,3H,4H,5H,6H-pyrrolo[3,4-c]pyrrole-2-carboxamide] | 75 to 250 | ≤ 0.1 | 75 to 250 | 250 to 50000 | 0.1 to 1 | 250 to 500 | 250 to 50000 | 0.1 to 1 | 250 to 500
5 | O=C(NCc1cccc(F)c1)N1CC2=C(C1)CN(S(=O)(=O)c1ccc(OC(F)F)cc1)C2 [Example 21-14, 5-[4-(Difluoromethoxy)benzenesulfonyl]-N-[(3-fluorophenyl)methyl]-1H,2H,3H,4H,5H,6H-pyrrolo[3,4-c]pyrrole-2-carboxamide] | 75 to 250 | 0.1 to 1 | 75 to 250 | 250 to 50000 | 1 to 40 | 250 to 500 | 250 to 50000 | 0.1 to 1 | 250 to 500
6 | COc1ccc(CNC(=O)N2CC3=C(C2)CN(S(=O)(=O)c2ccc4ncsc4c2)C3)cc1 [Example 21-16, 5-(1,3-Benzothiazole-6-sulfonyl)-N-[(4-methoxyphenyl)methyl]-1H,2H,3H,4H,5H,6H-pyrrolo[3,4-c]pyrrole-2-carboxamide] | 75 to 250 | ≤ 0.1 | 75 to 250 | 250 to 50000 | 0.1 to 1 | 250 to 500 | 250 to 50000 | ≤ 0.1 | 250 to 500
7 | COc1cccc(CNC(=O)N2CC3=C(C2)CN(S(=O)(=O)c2ccc4ncsc4c2)C3)c1 [Example 21-17, 5-(1,3-Benzothiazole-6-sulfonyl)-N-[(3-methoxyphenyl)methyl]-1H,2H,3H,4H,5H,6H-pyrrolo[3,4-c]pyrrole-2-carboxamide] | 75 to 250 | ≤ 0.1 | 75 to 250 | 75 to 250 | 1 to 40 | 75 to 250 | 75 to 250 | ≤ 0.1 | 75 to 250
8 | O=C(NCc1ccc(F)cc1)N1CC2=C(C1)CN(S(=O)(=O)c1ccc3ncsc3c1)C2 [Example 21-19, 5-(1,3-Benzothiazole-6-sulfonyl)-N-[(4-fluorophenyl)methyl]-1H,2H,3H,4H,5H,6H-pyrrolo[3,4-c]pyrrole-2-carboxamide] | 75 to 250 | 0.1 to 1 | 75 to 250 | 75 to 250 | 0.1 to 1 | 250 to 500 | 75 to 250 | 0.1 to 1 | 250 to 500
9 | O=C(NCc1cccc(F)c1)N1CC2=C(C1)CN(S(=O)(=O)c1ccc3ncsc3c1)C2 [Example 21-36, 5-(1,3-Benzothiazole-6-sulfonyl)-N-[(3-fluorophenyl)methyl]-1H,2H,3H,4H,5H,6H-pyrrolo[3,4-c]pyrrole-2-carboxamide] | 75 to 250 | 0.1 to 1 | 75 to 250 | 75 to 250 | 1 to 40 | 250 to 500 | 75 to 250 | 1 to 40 | 250 to 500
10 | O=C(NCc1ccc(F)cc1)N1CC2=C(C1)CN(S(=O)(=O)c1ccc(C(F)(F)F)nc1)C2 [Example 21-39, N-[(4-fluorophenyl)methyl]-5-{[6-(trifluoromethyl)pyridin-3-yl]sulfonyl}-1H,2H,3H,4H,5H,6H-pyrrolo[3,4-c]pyrrole-2-carboxamide] | 75 to 250 | 1 to 40 | 75 to 250 | 75 to 250 | 1 to 40 | 75 to 250 | 75 to 250 | 1 to 40 | 75 to 250

Other lines, results leading:

Row | activation at 1.54 µM (PKR(G332S)) [%] | AC50 (PKR(G332S)) [µM] | Emax (PKR(G332S)) [%] | activation at 1.54 µM (PKR(R510Q)) [%] | AC50 (PKR(R510Q)) [µM] | Emax (PKR(R510Q)) [%] | activation at 1.54 µM (PKR(wt)) [%] | AC50 (PKR(wt)) [µM] | Emax (PKR(wt)) [%] | Structure (SMILES)
11 | 75 to 250 | 0.1 to 1 | 75 to 250 | 75 to 250 | 1 to 40 | 250 to 500 | 75 to 250 | 1 to 40 | 250 to 500 | O=C(NCc1cccnc1)N1CC2=C(C1)CN(S(=O)(=O)c1ccc3ncsc3c1)C2 [Example 20-56, 5-(1,3-Benzothiazole-6-sulfonyl)-N-(pyridin-3-ylmethyl)-1H,2H,3H,4H,5H,6H-pyrrolo[3,4-c]pyrrole-2-carboxamide]
12 | 75 to 250 | ≤ 0.1 | 75 to 250 | 250 to 50000 | 0.1 to 1 | 250 to 500 | 250 to 50000 | 0.1 to 1 | 250 to 500 | COc1ccccc1CNC(=O)N1CC2=C(C1)CN(S(=O)(=O)c1ccc(OC(F)F)cc1)C2 [Example 21-12, 5-[4-(Difluoromethoxy)benzenesulfonyl]-N-[(2-methoxyphenyl)methyl]-1H,2H,3H,4H,5H,6H-pyrrolo[3,4-c]pyrrole-2-carboxamide]
13 | 75 to 250 | ≤ 0.1 | 75 to 250 | 250 to 50000 | ≤ 0.1 | 250 to 500 | 250 to 50000 | ≤ 0.1 | 250 to 500 | O=C(NCc1ccccc1F)N1CC2=C(C1)CN(S(=O)(=O)c1ccc(OC(F)F)cc1)C2 [Example 21-15, 5-[4-(Difluoromethoxy)benzenesulfonyl]-N-[(2-fluorophenyl)methyl]-1H,2H,3H,4H,5H,6H-pyrrolo[3,4-c]pyrrole-2-carboxamide]
14 | 75 to 250 | ≤ 0.1 | 75 to 250 | 250 to 50000 | 0.1 to 1 | 250 to 500 | 250 to 50000 | 0.1 to 1 | 250 to 500 | COc1ccccc1CNC(=O)N1CC2=C(C1)CN(S(=O)(=O)c1ccc3ncsc3c1)C2 [Example 21-18, 5-(1,3-Benzothiazole-6-sulfonyl)-N-[(2-methoxyphenyl)methyl]-1H,2H,3H,4H,5H,6H-pyrrolo[3,4-c]pyrrole-2-carboxamide]
15 | 75 to 250 | ≤ 0.1 | 75 to 250 | 250 to 50000 | ≤ 0.1 | 250 to 500 | 250 to 50000 | ≤ 0.1 | 250 to 500 | O=C(NCc1ccccc1F)N1CC2=C(C1)CN(S(=O)(=O)c1ccc3ncsc3c1)C2 [Example 21-20, 5-(1,3-Benzothiazole-6-sulfonyl)-N-[(2-fluorophenyl)methyl]-1H,2H,3H,4H,5H,6H-pyrrolo[3,4-c]pyrrole-2-carboxamide]
16 | 75 to 250 | 0.1 to 1 | 75 to 250 | 250 to 50000 | 0.1 to 1 | 250 to 500 | 75 to 250 | 0.1 to 1 | 250 to 500 | O=C(NCc1ccccc1F)N1CC2=C(C1)CN(S(=O)(=O)c1cccnc1)C2 [Example 21-37, N-[(2-fluorophenyl)methyl]-5-(pyridine-3-sulfonyl)-1H,2H,3H,4H,5H,6H-pyrrolo[3,4-c]pyrrole-2-carboxamide]
17 | 75 to 250 | 1 to 40 | 75 to 250 | 75 to 250 | 0.1 to 1 | 75 to 250 | 75 to 250 | 0.1 to 1 | 75 to 250 | O=C(NCc1ccccc1F)N1CC2=C(C1)CN(S(=O)(=O)c1ccc(C(F)(F)F)nc1)C2 [Example 21-40, N-[(2-fluorophenyl)methyl]-5-{[6-(trifluoromethyl)pyridin-3-yl]sulfonyl}-1H,2H,3H,4H,5H,6H-pyrrolo[3,4-c]pyrrole-2-carboxamide]
18 | 75 to 250 | 1 to 40 | 75 to 250 | 75 to 250 | 0.1 to 1 | 75 to 250 | 75 to 250 | 0.1 to 1 | 250 to 500 | O=C(NCc1ccc(F)cc1)N1CC2=C(C1)CN(S(=O)(=O)c1ccccn1)C2 [Example 21-41, N-[(4-fluorophenyl)methyl]-5-(pyridine-2-sulfonyl)-1H,2H,3H,4H,5H,6H-pyrrolo[3,4-c]pyrrole-2-carboxamide]
